How the values were obtained:
[1] = biological target: T1, human B2 receptor (Homo sapiens, UniProt P30411); assay: In vitro pharmacology testing, antagonist potency; format: biochemical
T1 sequence (P30411 1-391): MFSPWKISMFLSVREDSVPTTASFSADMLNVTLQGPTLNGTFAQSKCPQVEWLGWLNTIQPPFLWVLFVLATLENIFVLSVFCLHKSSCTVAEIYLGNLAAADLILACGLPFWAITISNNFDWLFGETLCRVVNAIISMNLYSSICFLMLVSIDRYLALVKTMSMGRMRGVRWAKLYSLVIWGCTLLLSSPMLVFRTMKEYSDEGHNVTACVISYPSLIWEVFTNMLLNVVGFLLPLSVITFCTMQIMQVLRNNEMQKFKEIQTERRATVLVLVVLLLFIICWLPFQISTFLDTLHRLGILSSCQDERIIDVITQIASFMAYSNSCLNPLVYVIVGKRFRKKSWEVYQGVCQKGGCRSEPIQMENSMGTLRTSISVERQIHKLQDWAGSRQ

[2] = system: monkey B2 receptor; assay: In vitro pharmacology testing, antagonist potency; format: biochemical
[3] = biological target: T2, dog B2 receptor (Canis lupus familiaris, UniProt Q9BDQ4); assay: In vitro pharmacology testing, antagonist potency; format: biochemical
T2 sequence (Q9BDQ4 1-392): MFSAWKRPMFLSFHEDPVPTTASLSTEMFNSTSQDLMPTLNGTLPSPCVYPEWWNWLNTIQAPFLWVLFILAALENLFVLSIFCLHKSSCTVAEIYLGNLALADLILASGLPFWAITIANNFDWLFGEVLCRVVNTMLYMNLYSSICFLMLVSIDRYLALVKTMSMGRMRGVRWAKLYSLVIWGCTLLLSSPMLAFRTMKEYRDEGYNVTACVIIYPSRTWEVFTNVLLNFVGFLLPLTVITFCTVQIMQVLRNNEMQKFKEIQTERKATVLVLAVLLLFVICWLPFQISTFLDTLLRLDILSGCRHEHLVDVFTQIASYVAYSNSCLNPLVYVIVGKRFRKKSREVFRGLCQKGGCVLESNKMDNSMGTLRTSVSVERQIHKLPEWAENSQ

[4] = biological target: T3, rat B2 receptor (Rattus norvegicus, UniProt P25023); assay: In vitro pharmacology testing, antagonist potency; format: biochemical
T3 sequence (P25023 1-396): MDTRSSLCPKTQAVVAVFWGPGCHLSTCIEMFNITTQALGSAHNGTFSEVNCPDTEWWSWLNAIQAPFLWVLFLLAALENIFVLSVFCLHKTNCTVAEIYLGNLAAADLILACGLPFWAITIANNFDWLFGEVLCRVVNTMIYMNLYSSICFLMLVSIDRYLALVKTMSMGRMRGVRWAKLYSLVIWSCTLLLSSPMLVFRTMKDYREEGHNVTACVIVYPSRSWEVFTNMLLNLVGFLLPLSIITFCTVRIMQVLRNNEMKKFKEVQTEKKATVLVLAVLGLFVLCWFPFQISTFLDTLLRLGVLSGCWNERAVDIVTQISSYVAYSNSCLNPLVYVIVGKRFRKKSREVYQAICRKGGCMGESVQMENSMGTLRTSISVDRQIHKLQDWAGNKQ

[5] = biological target: T4, mouse B2 receptor (Mus musculus, UniProt P32299); assay: In vitro pharmacology testing, antagonist potency; format: biochemical
T4 sequence (P32299 1-392): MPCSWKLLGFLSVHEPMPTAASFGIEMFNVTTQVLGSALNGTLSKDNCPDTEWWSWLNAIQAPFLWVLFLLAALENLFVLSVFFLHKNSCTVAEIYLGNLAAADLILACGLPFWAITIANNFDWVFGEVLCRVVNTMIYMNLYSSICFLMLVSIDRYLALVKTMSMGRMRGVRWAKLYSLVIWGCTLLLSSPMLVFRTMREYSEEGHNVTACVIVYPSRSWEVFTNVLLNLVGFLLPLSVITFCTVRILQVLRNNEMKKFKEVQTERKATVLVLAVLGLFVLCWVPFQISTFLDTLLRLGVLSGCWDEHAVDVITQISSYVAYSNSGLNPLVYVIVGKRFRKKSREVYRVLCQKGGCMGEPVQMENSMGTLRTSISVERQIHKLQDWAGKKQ

[6] = Single dose pharmacokinetic study in monkeys; format: in vivo, Cynomolgus monkeys; details: after administration, except one animal treated with the Test Formulation
Protocol: The pharmacokinetic properties of a liquid composition according to the invention after a single oral administration in Cynomolgus monkeys was studied and compared with those of a suspension of the same API in an aqueous carrier comprising methylcellulose (1 wt. %). The Test Formulation was based on composition E of Example 1, except that the concentration of the API was 5 mg/mL in essentially the same liquid vehicle as composition E. The Comparative Formulation comprised the same API at a concentration of 2 mg/mL, formulated as an aqueous drug suspension further comprising methylcellulose (1 wt %). […]
The pharmacokinetic parameters were determined from the individual plasma concentrations by non-compartmental analysis, using Kinetica™ 4.4.1 (Thermo Fisher). […]
Maximum plasma concentration (Cmax), sampling time of Cmax (Tmax), and sampling time of the last plasma concentration >LLOQ (Tlast) parameters were determined from the observations. The area under the plasma concentration-time curve from the time of dosing to the last quantifiable concentration was calculated using the linear up/logarithmic down trapezoidal rule (AUClast). At least 3 consecutive quantifiable concentrations had to be available for AUC calculation. […]
The percentage of extrapolated AUC from Tlast to infinity was calculated by Kinetica™ 4.4.1, using the following equation: […]

[7] = biological target: T5, bradykinin B2 receptor (Homo sapiens, UniProt P30411); assay: Estimated therapeutic efficacious threshold plasma concentration; format: in vivo
T5 sequence (P30411 1-391): T1 sequence (P30411 1-391)

antagonist potency [1]: high antagonist potency
antagonist potency [2]: high antagonist potency
antagonist potency [3]: low antagonist potency
antagonist potency [4]: low antagonist potency
antagonist potency [5]: low antagonist potency
time up to which API plasma concentrations were quantifiable [6]: up to 24 hours
estimated EC50 (therapeutic efficacious threshold plasma concentration) [7]: 2.4 ng/mL
estimated EC85 (therapeutic efficacious threshold plasma concentration) [7]: 13.8 ng/mL
SMILES: [2H][C@@](C)(NC(=O)COC(F)F)c1cc(F)cc(Cl)c1COc1cccc2c(-c3ncnn3C)cc(C)nc12 [API, (S)-N-(1-deutero-1-(3-chloro-5-fluoro-2-((2-methyl-4-(1-methyl-1H-1,2,4-triazol-5-yl)quinolin-8-yloxy)methyl)phenyl)ethyl)-2-(difluoromethoxy)acetamide monohydrate]

From patent US20240350418A1, “LIPID-BASED COMPOSITION FOR ORAL ADMINISTRATION OF BRADYKININ B2-RECEPTOR ANTAGONISTS” (PHARVARIS GMBH, priority 2021, published 2024)
